Data as given in US8071336B2, “Antibody-based therapeutics with enhanced ADCC activity” (Genzyme Corporation, priority 2005, dated 2011).

Legend:
[1] = tested on: CHO cell clone expressing TEM mAb A; test: Titration of kifunensine concentration, N-glycans of TEM mAb A (MALDI-TOF MS); type: cell-based, Chinese hamster; conditions: for glycan structures of the expressed antibody: 11 days
Experimental: To investigate the impact of mixed oligomannose and complex-type glycans on antibody function, cells expressing TEM mAb A were treated with various amounts of kifunensine. In the first experiment, a CHO cell clone expressing TEM mAb A was treated with 0, 4, 20, 100, 500 and 2500 ng/ml of kifunensine for 11 days. The medium was harvested, and the antibody was purified using a protein A column. Fractions containing protein peaks were pooled and dialyzed into PBS. A second titration experiment was performed with a narrower range of kifunensine concentration, specifically, from 20 to 100 ng/ml. After treatment for 11 days, 50 ml of medium from each treatment condition was harvested, and the antibody was purified. Peak-containing fractions were pooled, buffer-exchanged into PBS using Centricon® filters with repeated centrifugation. Aliquots of TEM mAb A antibody samples were applied to a 4-12% NuPAGE and stained with Coomassie blue to confirm purity. The amount of fucosylated and non-fucosylated glycans in antibodies from each kifunensine treatment in the second titration experiment was estimated by calculating the area of each individual glycan peak in MALDI-TOF MS spectra.

[2] = tested on: Hybridoma cells expressing TEM mAb A; test: N-glycans of TEM mAb A from inhibitor-treated hybridoma cells (MALDI-TOF MS); type: cell-based; conditions: 20 μg/ml mannostatin A, 0.5 mM NB-DNJ, or 2 μg/ml kifunensine at days 0 and 2
Experimental: Hybridoma cells expressing TEM mAb A, an antibody against a tumor vascular associated antigen, were grown in medium containing 1% fetal bovine serum with low IgG (Invitrogen Corp.), 5 μg/ml bovine insulin, 5 μg/ml human transferrin, 0.01 mM ethanolamine and 25 nM sodium selenite. Cells were treated once with the following inhibitors: 20 μg/ml mannostatin A, and 0.5 mM NB-DNJ for 4 days; and twice with 2 μg/ml kifunensine at days 0 and 2; or cultured without inhibitors (“control”).
N-linked glycans from antibodies purified as described in Example 1 were released with PNGase F. After filtration through 10 kDa filters, the filtrates were treated with Dowex AG-50 (H^+), AG501, and […] sequentially. Aliquots of samples were applied to a target, followed by sDHB matrix. The MALDI-TOF mass spectra were acquired using a Voyager-DE PRO Biospectrometry Workstation (Applied Biosystems, Foster City, Calif., USA) in the positive-ion and reflective mode.

[3] = tested on: CHO cells expressing TEM mAb B; test: Batch cultures of CHO cells expressing TEM mAb B treated with kifunensine (shaker flasks); type: cell-based, Chinese hamster
Experimental: The production of TEM mAb B from batch cultures treated with various amounts of kifunensine or untreated was evaluated. CHO cells in shaker flasks were treated with 0, 0.5, 1, 1.5, or 2 μg/ml in a single or three additions (4 days apart) and cultured for 11 days. Cell viability (using trypan blue) and cell counts were assessed at least every other day.

[4] = after removal of most of the galactose residues; cited from earlier work
[5] = after removal of most of the galactose residues; cited from earlier work; remark: listed apart in the source

## O=C1N[C@@H]2[C@@H](O)[C@@H](O)[C@H](O)[C@@H](CO)N2C1=O [kifunensine]
[1]; 20 ng/ml kifunensine
  glycan structures of the expressed antibody: only a small amount of oligomannose structures (Man5/Man6)
[1]; 60 ng/ml or higher kifunensine, estimated from MALDI-TOF MS peak areas
  non-fucosylated glycans of the expressed antibody: > 80%
[1]; 100 ng/ml kifunensine
  glycan structures of the expressed antibody: complete oligomannose structures
[2]
  effect on glycosylation of the expressed antibody: more effective in blocking the glycosylation to complex-type structures than NB-DNJ
[3]; 0.5 μg/ml kif sup. 3x (three additions), 11 days
  Xvmax (viable cells at day of peak cell density): 3.5 ×10^6 cells
[3]; 0.5 μg/ml kif, single addition, 11 days
  Xvmax (viable cells at day of peak cell density): 3.5 ×10^6 cells
[3]; 1 μg/ml kif sup. 3x (three additions), 11 days
  Xvmax (viable cells at day of peak cell density): 1.6 ×10^6 cells
[3]; 1 μg/ml kif, single addition, 11 days
  Xvmax (viable cells at day of peak cell density): 2.7 ×10^6 cells
[3]; 1.5 μg/ml kif sup. 3x (three additions), 11 days
  Xvmax (viable cells at day of peak cell density): 1.6 ×10^6 cells
[3]; 1.5 μg/ml kif, single addition, 11 days
  Xvmax (viable cells at day of peak cell density): 3.8 ×10^6 cells
[3]; 2 μg/ml kif sup. 3x (three additions), 11 days
  Xvmax (viable cells at day of peak cell density): 1.7 ×10^6 cells
[3]; 2 μg/ml kif, single addition, 11 days
  Xvmax (viable cells at day of peak cell density): 2.1 ×10^6 cells
[3]; FIG. 10A, 0 to 2 μg/ml kifunensine, 1 or 3 additions, 11 days
  cell viability (trypan blue): comparable
[3]; FIG. 10B, kifunensine-treated vs untreated cells
  cell density: lower
[3]; single kifunensine treatment at 0.5 μg/ml
  glycan structures of the expressed antibody: enough to result in the production of oligomannose-type structures
[3]; three additions of kifunensine vs untreated control or single treatment
  cell density: much lower cell density

## CCCCN1C[C@H](O)[C@@H](O)[C@H](O)[C@H]1CO [NB-DNJ, N-butyl-DNJ]
[2]
  effect on glycosylation of the expressed antibody: significant amounts of Glc1Man9GlcGNAc2 (Man9Glc)

## Campath®: a humanized mAb IgG1
[4]
  complement lysis activity: reduced complement lysis activity
[5]
  ADCC: no effect on ADCC

## CS[C@@H]1[C@@H](N)[C@@H](O)[C@@H](O)[C@H]1O [mannostatin A]
[2]
  effect on glycosylation of the expressed antibody: No alteration in glycosylation
